Results as given in patent US10479780B2, “Aminopyrazole derivatives” (Chugai Seiyaku Kabushiki Kaisha, priority 2015, dated 2019).
pIC50: −log10 of the molar value. Where two headings read alike, the source gives them in different places.

Assays:
Type in all cases: biochemical
[1] = molecular target: T1, human Yes1 enzyme (Homo sapiens, UniProt P07947); experiment: Yes1 enzyme inhibitory activity (time-resolved fluorometry, biotinylated peptide phosphorylation); details: read-out: YES_IC50
T1 construct: made in house
Procedure: (§1) 1. Yes1 Enzyme Inhibitory Activity Yes1 inhibitory activity was determined based on activity of inhibiting phosphorylation reaction of a biotinylated peptide (EGPWLEEEEEAYGWMDF) using a human Yes1 enzyme prepared using a baculovirus expression system. The phosphorylated biotinylated peptide was detected by time-resolved fluorometry using an anti-phosphorylated tyrosine antibody conjugated to europium cryptate, and streptavidin conjugated to XL665, an allophycocyanin derivative. The 50% inhibitory concentration (IC50) was calculated from the inhibition rate relative to the control group without containing the test substance.

[2] = molecular target: T2, human Src enzyme (Homo sapiens, UniProt P12931); experiment: Src enzyme inhibitory activity (time-resolved fluorometry, biotinylated peptide phosphorylation); details: read-out: SRC_IC50
T2 construct: purchased Carna Biosciences, Inc. 08-173
Procedure: as §1, with “2. Src” for “1. Yes1”, “Src” for “Yes1”, “(manufactured by Carna Biosciences, Inc., cat 08-173).” for “prepared using a baculovirus expression system.”

[3] = molecular target: T3, human Lck enzyme (Homo sapiens, UniProt P06239); experiment: Lck enzyme inhibitory activity (time-resolved fluorometry, biotinylated peptide phosphorylation); details: read-out: LCK_IC50
T3 construct: purchased Carna Biosciences, Inc. 08-170
Procedure: as §1, with “3. Lck” for “1. Yes1”, “Lck” for “Yes1”, “(manufactured by Carna Biosciences, Inc., cat 08-170).” for “prepared using a baculovirus expression system.”

[4] = biotinylated peptide phosphorylation

T2 sequence (P12931 whole entry): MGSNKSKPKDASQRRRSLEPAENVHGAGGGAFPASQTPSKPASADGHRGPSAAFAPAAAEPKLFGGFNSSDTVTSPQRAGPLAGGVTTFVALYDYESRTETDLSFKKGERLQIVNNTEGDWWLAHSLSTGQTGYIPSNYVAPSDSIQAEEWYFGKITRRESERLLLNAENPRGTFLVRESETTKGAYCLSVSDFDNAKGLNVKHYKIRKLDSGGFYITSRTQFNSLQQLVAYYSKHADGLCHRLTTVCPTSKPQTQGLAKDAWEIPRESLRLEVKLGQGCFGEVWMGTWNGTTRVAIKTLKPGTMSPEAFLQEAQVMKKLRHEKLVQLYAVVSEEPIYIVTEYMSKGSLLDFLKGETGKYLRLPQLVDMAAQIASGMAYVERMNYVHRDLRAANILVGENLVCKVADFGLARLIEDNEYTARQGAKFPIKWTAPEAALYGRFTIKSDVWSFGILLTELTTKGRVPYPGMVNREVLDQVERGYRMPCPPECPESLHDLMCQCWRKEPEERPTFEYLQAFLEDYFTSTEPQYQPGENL
T3 sequence (P06239 whole entry): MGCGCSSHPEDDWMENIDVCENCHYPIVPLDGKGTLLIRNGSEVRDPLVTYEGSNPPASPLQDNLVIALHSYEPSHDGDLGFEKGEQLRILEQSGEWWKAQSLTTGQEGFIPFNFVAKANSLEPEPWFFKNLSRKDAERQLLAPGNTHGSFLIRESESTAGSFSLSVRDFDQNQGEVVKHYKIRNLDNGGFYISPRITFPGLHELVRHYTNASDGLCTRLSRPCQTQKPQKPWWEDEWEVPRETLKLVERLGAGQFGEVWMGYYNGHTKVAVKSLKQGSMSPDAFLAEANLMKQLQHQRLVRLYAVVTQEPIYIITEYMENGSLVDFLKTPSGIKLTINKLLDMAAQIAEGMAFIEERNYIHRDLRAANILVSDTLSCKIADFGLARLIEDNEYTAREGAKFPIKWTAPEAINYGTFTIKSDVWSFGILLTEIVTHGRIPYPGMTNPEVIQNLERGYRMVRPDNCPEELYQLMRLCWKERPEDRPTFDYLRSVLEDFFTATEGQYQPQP
T1 sequence (P07947 whole entry): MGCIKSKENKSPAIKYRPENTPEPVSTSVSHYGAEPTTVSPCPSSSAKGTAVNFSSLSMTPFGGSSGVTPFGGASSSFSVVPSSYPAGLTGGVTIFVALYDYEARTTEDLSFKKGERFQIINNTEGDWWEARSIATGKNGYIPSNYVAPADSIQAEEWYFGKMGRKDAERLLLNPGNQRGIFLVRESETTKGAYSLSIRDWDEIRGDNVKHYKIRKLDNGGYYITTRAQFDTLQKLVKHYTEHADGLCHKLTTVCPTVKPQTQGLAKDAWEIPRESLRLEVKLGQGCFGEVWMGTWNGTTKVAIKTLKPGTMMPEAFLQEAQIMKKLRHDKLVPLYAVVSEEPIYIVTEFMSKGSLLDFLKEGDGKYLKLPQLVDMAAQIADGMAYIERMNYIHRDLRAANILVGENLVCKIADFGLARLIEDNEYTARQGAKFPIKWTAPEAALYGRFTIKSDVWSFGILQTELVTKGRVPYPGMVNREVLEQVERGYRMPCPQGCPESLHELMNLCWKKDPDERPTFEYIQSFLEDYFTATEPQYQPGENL

Row | SMILES | pIC50 [1, 4] | pIC50 [2, 4] | pIC50 [3, 4] | pIC50 [1] | pIC50 [2] | pIC50 [3]
1 | Cc1cc2cc(C(=O)c3cnn(-c4cnc(Oc5c(F)cccc5F)cc4C)c3N)[nH]c2cc1N1C(=O)N[C@@H](CO)C1=O [Example 5-1-451, (5S)-3-[2-[5-amino-1-[6-(2,6-difluorophenoxy)-4-methylpyridin-3-yl]pyrazole-4-carbonyl]-5-methyl-1H-indol-6-yl]-5-(hydroxymethyl) imidazolidine-2,4-dione] | 9.05 | 7.39 | 8.34 | – | – | –
2 | Cc1cc(Oc2ccccc2F)ncc1-n1ncc(C(=O)c2cc3cc(F)c(NS(=O)(=O)c4cncc(F)c4)cc3[nH]2)c1N [Example 5-1-549, N-[2-[5-amino-1-[6-(2-fluorophenoxy)-4-methylpyridin-3-yl]pyrazole-4-carbonyl]-5-fluoro-1H-indol-6-yl]-5-fluoropyridine-3-sulfonamide] | 8.11 | 6.13 | 7.10 | – | – | –
3 | Cc1cc2cc(C(=O)c3cnn(-c4ccc(Oc5c(F)cccc5F)cc4C)c3N)[nH]c2cc1NS(C)(=O)=O [Example 5-1-092, N-[2-[5-amino-1-[4-(2,6-difluorophenoxy)-2-methylphenyl]pyrazole-4-carbonyl]-5-methyl-1H-indol-6-yl]methanesulfonamide] | – | – | – | 9.04 | 7.80 | 8.55
4 | CC(=O)N1CCC(c2cc3[nH]c(C(=O)c4cnn(-c5c(C)cc(Oc6ccccc6F)cc5F)c4N)cc3cc2OC(F)F)CC1 [Example 4-17-005, 1-[4-[2-[5-amino-1-[2-fluoro-4-(2-fluorophenoxy)-6-methylphenyl]pyrazole-4-carbonyl]-5-(difluoromethoxy)-1H-indol-6-yl]piperidin-1-yl]ethanone] | 8.54 | 7.44 | 7.77 | – | – | –
5 | Cc1cc(Oc2ccccc2F)ccc1-n1ncc(C(=O)c2cc3cc(OC(F)F)c(Br)cc3[nH]2)c1N [Example 5-1-082, [5-amino-1-[4-(2-fluorophenoxy)-2-methylphenyl]pyrazol-4-yl]-[6-bromo-5-(difluoromethoxy)-1H-indol-2-yl]methanone] | – | – | – | 8.72 | 7.59 | 7.96
6 | COc1ccc(Cl)c(S(=O)(=O)Nc2cc3[nH]c(C(=O)c4cnn(-c5cnc(Oc6c(F)cccc6F)cc5C)c4N)cc3cc2OCC(F)F)c1 [Example 5-1-301, N-[2-[5-amino-1-[6-(2,6-difluorophenoxy)-4-methylpyridin-3-yl]pyrazole-4-carbonyl]-5-(2,2-difluoroethoxy)-1H-indol-6-yl]-2-chloro-5-methoxybenzenesulfonamide] | – | – | – | 8.19 | 6.21 | 6.77
7 | Cc1cc(Oc2ccccc2F)ccc1-n1ncc(C(=O)c2cc3cc(F)c(NS(=O)(=O)c4c(F)cc(F)cc4F)cc3[nH]2)c1N [Example 5-1-566, N-[2-[5-amino-1-[4-(2-fluorophenoxy)-2-methylphenyl]pyrazole-4-carbonyl]-5-fluoro-1H-indol-6-yl]-2,4,6-trifluorobenzenesulfonamide] | 8.25 | 6.09 | 6.47 | – | – | –
8 | Cc1cc(Oc2ccccc2F)ccc1-n1ncc(C(=O)c2cc3cc(OC(F)F)c(N4CCCC4=O)cc3[nH]2)c1N [Example 4-21-006, 1-[2-[5-amino-1-[4-(2-fluorophenoxy)-2-methylphenyl]pyrazole-4-carbonyl]-5-(difluoromethoxy)-1H-indol-6-yl]pyrrolidin-2-one] | 8.80 | 7.77 | 8.26 | – | – | –
9 | Cc1cc(Oc2ccccc2Cl)cc(F)c1-n1ncc(C(=O)c2cc3cc(F)c(NS(=O)(=O)C4CC4)cc3[nH]2)c1N [Example 4-7-010, N-[2-[5-amino-1-[4-(2-chlorophenoxy)-2-fluoro-6-methylphenyl]pyrazole-4-carbonyl]-5-fluoro-1H-indol-6-yl]cyclopropanesulfonamide] | 8.05 | 6.55 | 7.00 | – | – | –
